Measurements published in US9764046B2, “Labeling composition for intraocular tissue, labeling method of intraocular tissue, and screening method” (CANON KABUSHIKI KAISHA, priority 2008, dated 2017).
Values joined by “and” are separate entries in the source; they are usually repeats but may differ in a detail not shown here. Equal values may be shown once.

Tests used:
[1] = tested on: intraocular tissue (retinal tissue incl. photoreceptor cell layer, vitreous body) of Zebrafish 7-day-old embryo; test: Staining of intraocular tissue of Zebrafish fry by exposure to staining liquid, ocular tissue section observed by confocal microscope; format: in vivo; conditions: Zebrafish 7 dpf fry, 1 μg/mL, 1 hour exposure, fixed ocular section
[2] = Excitation and fluorescence wavelengths by fluorescence spectrometer FL4500; format: physicochemical; conditions: in nm (unit assumed)
[3] = aqueous solution: 10 mg/mL DMSO solution diluted to 1/500 with purified water (Examples 1 to 94)
[4] = values in a chloroform solution (Examples 95 to 106)

| λem (fluorescence wavelength) [2, 3] | λex (excitation wavelength) [2, 3] | λem (fluorescence wavelength) [2, 4] | λex (excitation wavelength) [2, 4] | Structure (SMILES) | Staining ability [1] | Stained site [1] |
| --- | --- | --- | --- | --- | --- | --- |
| 673 | 551 |  |  | CCN1C(=O)/C(=c2/s/c(=C/c3ccc4c(c3)C3CCCC3N4c3ccc(C=C(c4ccccc4)c4ccccc4)cc3)c(=O)n2CC(=O)O)SC1=S (stereo not shown) [Compound 80] | ++ |  |
| 721 | 591 |  |  | CC[n+]1c(C=c2sc(=Cc3ccc4c(c3)C3CCCC3N4c3ccc(C=C(c4ccccc4)c4ccccc4)cc3)c(=O)n2-c2ccccc2)sc2ccccc21.[Br-] (stereo not shown) [Compound 82] | +++ | 2 |
| 682 | 605 |  |  | COc1ccc(N2c3ccc(/C=C/c4sc5c6ccccc6ccc5[n+]4CCC(=O)O)cc3C3CCCC32)cc1.[I-] (stereo not shown) [Compound 83] | ++ | 2 |
| 718 | 599 |  |  | CCOC(=O)Cn1c(=Cc2sc3ccccc3[n+]2C)sc(=Cc2ccc3c(c2)C2CCCC2N3c2ccc(C=C(c3ccccc3)c3ccccc3)cc2)c1=O.[Br-] (stereo not shown) [Compound 84] | ++ | 2 |
| 503 | 353 |  |  | CC[n+]1c(C=C2SCC(=O)N2c2ccccc2)sc2ccccc21.[Br-] [Compound 85] | ++ | 2 |
| 671 | 623 |  |  | CCN1C(=O)/C(=c2\s/c(=C/c3ccc4c(c3)C3CCCC3N4CC)c(=O)n2CC)SC1=S (stereo not shown) [Compound 86] | ++ |  |
| 551 | 466 |  |  | CCCCNc1ccc2c3c(cccc13)C(=O)N(CCCC)C2=O [Compound 87] | ++ |  |
| 503 | 450 |  |  | CCOC(=O)c1cc(/C=C/C=C/c2sc3ccccc3[n+]2CC(=O)O)c2cccccc1-2.[Br-] [Compound 88] | ++ | 1 |
| 550 | 528 |  |  | CC/N=c1\cc2oc3cc(NCC)c(C)cc3c(-c3ccccc3C(=O)CC)c-2cc1C [Compound 90] | ++ |  |
| 578 and 590 | 509 and 528 |  |  | CCN(CC)c1ccc2c(-c3ccc(S(=O)(=O)NCCC(=O)O)cc3S(=O)(=O)O)c3ccc(=[N+](CC)CC)cc-3oc2c1.[Na+] [Compound 95] | ++ |  |
| 680 | 530 |  |  | C=CCN1C(=O)/C(=c2\s/c(=C/c3ccc4c(c3)C3CCCC3N4c3ccc(OC)cc3)c(=O)n2CC(=O)O)SC1=S (stereo not shown) [Compound 97] | ∘ |  |
| 690 | 510 |  |  | C=CCN1C(=O)/C(=C2\S/C(=C/c3ccc4c(c3)C3CCCC3N4c3ccccc3)CN2CC(=O)O)SC1=S (stereo not shown) [Compound 98] | ∘ |  |
| 760 | 560 |  |  | C[n+]1c(C=c2sc(=Cc3ccc4c(c3)C3CCCC3N4c3ccc(C=C(c4ccccc4)c4ccccc4)cc3)c(=O)n2CC(=O)O)sc2ccccc21.[Br-] (stereo not shown) [Compound 101] | ∘ | 1 |
| 700 | 590 |  |  | CCn1c(=C2SC(=S)N(CC(=O)O)C2=O)sc(=Cc2ccc3c(c2)C2CCCC2N3c2ccccc2)c1=O (stereo not shown) [Compound 102] | ∘ | 1 |
| 640 | 520 |  |  | CSc1cccc(N2c3ccc(/C=C4/SC(=S)N(CC(=O)O)C4=O)cc3C3CCCC32)c1 (stereo not shown) [Compound 103] | ∘ |  |
| 650 | 510 |  |  | O=C(O)CN1C(=O)/C(=C2C=C/C(=C\c3ccc4c(c3)C3CCCC3N4c3ccccc3)C\2)SC1=S (stereo not shown) [Compound 106] | ∘ |  |
| 490 | 380 |  |  | O=C1/C(=C/c2ccc3c(c2)C2CCCC2N3c2ccccc2)Oc2ccc(I)cc21 (stereo not shown) [Compound 107] | ∘ |  |
| 680 | 530 |  |  | COc1ccc(N2c3ccc(/C=C4\Oc5ccc(I)cc5C4=O)cc3C3CCCC32)cc1 (stereo not shown) [Compound 108] | ∘ |  |
| 630 | 540 |  |  | Cc1cc(C)cc(Nc2ccc3c4c(cc(=O)n3C)-c3ccccc3C(=O)c24)c1 [Compound 109] | ∘ |  |
|  |  | 614 | 538 | Cn1c(=O)cc2c3c(c(Nc4ccccc4)ccc31)C(=O)c1ccccc1-2 [Compound 110] | ∘ |  |
|  |  | 589 | 527 | Nc1c(Br)cc(O)c2c1C(=O)c1ccccc1C2=O [Compound 111] | ∘ |  |
|  |  | 568 | 513 | Nc1c(OCCCOc2ccccc2)cc(O)c2c1C(=O)c1ccccc1C2=O [Compound 112] | ∘ |  |
|  |  | 575 | 514 | COC(=O)CCc1ccc(Oc2cc(O)c3c(c2N)C(=O)c2ccccc2C3=O)c(C)c1 [Compound 113] | ∘ |  |
|  |  | 614 | 540 | Cc1cccc(Nc2ccc3c4c(cc(=O)n3C)-c3ccccc3C(=O)c24)c1 [Compound 115] | ∘ |  |
|  |  | 584 | 537 | COc1ccc(Nc2ccc3c4c(cc(=O)n3C)-c3ccccc3C(=O)c24)cc1 [Compound 116] | ∘ |  |
|  |  | 581 | 538 | CCOc1ccc(Nc2ccc3c4c(cc(=O)n3C)-c3ccccc3C(=O)c24)cc1 [Compound 117] | ∘ |  |
|  |  | 634 | 540 | CCCCc1ccc(Nc2ccc3c4c(cc(=O)n3C)-c3ccccc3C(=O)c24)cc1 [Compound 118] | ∘ |  |
|  |  | 609 | 537 | Cc1ccc(Nc2ccc3c4c(cc(=O)n3C)-c3ccccc3C(=O)c24)c(C)c1 [Compound 120] | ∘ |  |
|  |  | 609 | 537 | Cc1ccc(C)c(Nc2ccc3c4c(cc(=O)n3C)-c3ccccc3C(=O)c24)c1 [Compound 121] | ∘ |  |
|  |  | 582 | 534 | Cc1cccc(C)c1Nc1ccc2c3c(cc(=O)n2C)-c2ccccc2C(=O)c13 [Compound 122] | ∘ |  |

| Structure (SMILES) | λem (fluorescence wavelength) [2, 3] | λex (excitation wavelength) [2, 3] | λem (fluorescence wavelength) [2, 4] | λex (excitation wavelength) [2, 4] | Staining ability [1] | Stained site [1] |
| --- | --- | --- | --- | --- | --- | --- |
| Nc1c(OCCOC(=O)Oc2ccccc2)cc(O)c2c1C(=O)c1ccccc1C2=O [Compound 114] |  |  | 568 | 513 | ∘ |  |
